These results are taken from paper PMC6716783, “Agonist-induced membrane nanodomain clustering drives GLP-1 receptor responses in pancreatic beta cells” (PLoS Biology, 2019).

Ends that are not written are not given here.

The test system of assay [1] is GLP-1R. The following applies: cited from earlier work. The source says: To further elucidate the mechanism by which BETP potentiates GLP-1R responses, we examined the relative contributions of GLP-1R palmitoylation, β-arrestins, and cholesterol-dependent membrane compartmentalization to its effect.
Assay [2] has as its system wt or C438A SNAP-GLP-1R in HEK293 cells. The assay can be described thus: Internalization of C438A versus wt SNAP-GLP-1R with BETP (confocal, DERET). The class given is cell-based, human. Particulars: 100 nM exendin-phe1, 10 μM BETP.
Assay [3] deals with SNAP-GLP-1R. The assay can be described thus: Palmitoylation assay, SNAP-GLP-1R. The class given is cell-based, human.
Experimental: For the detection of palmitoylated GLP-1Rs, cells were stimulated with 100 nM of the indicated agonist for 10 min and, when appropriate, pretreated with 10 μM BETP for 5 min (and throughout the agonist stimulation period) or overnight with 200 μM of the palmitoylation inhibitor 2-BP. Isolation of palmitoylated proteins was performed with the CAPTUREome S-Palmitoylated Protein Kit (Badrilla), following the manufacturer’s instructions. […] Key steps include blocking of free thiol groups with a blocking reagent, cleavage of thioester linkages to release the palmitate group, and capture of newly liberated thiols with the CAPTUREome capture resin. Briefly, cells were lysed and free thiols blocked in the manufacturer’s blocking buffer at 40 °C for 4 h with constant vortexing. Proteins were then precipitated with cold acetone for 20 min at −20 °C. Following centrifugation at 16,000g for 5 min, the pellet was extensively washed with 70% cold acetone and resuspended in the manufacturer’s binding buffer. Approximately 10% of the soluble lysate was saved as the input fraction (IF). Prewashed CAPTUREome capture resin was added to the lysates. To this mixture, either the thioester cleavage or the acyl-preservation reagents were added. Resins were washed five times with the manufacturer’s binding buffer. […]
Assay [4] concerns GLP-1R. The following applies: cited from earlier work. The source holds these as a separate data set.
In assay [5] the test system is cellular cholesterol in HEK293, CHO-K1, INS-1 832/3, MIN6B1 cells. The assay can be described thus: Cholesterol depletion (filipin / Amplex Red). The class given is cell-based. Set-up: unit not given here. The procedure: Cells were treated with or without MβCD as above. For cholesterol labeling, filipin staining was carried out with the Cell-Based Cholesterol Assay Kit (Abcam). For quantification of cholesterol levels, lipid was extracted using butanol as described. Briefly, the washed cell pellet was left in 250 μl butanol overnight at 4 °C, and the organic layer was aspirated, placed in a microplate, and allowed to evaporate to dryness. The lipid film was redissolved in 1% Triton X-100, and cholesterol concentration was determined using the Amplex Red Cholesterol Assay Kit (Thermo Fisher), followed by normalization to protein content of the cell pellet determined by BCA assay.

Assay [6] deals with human GLP-1R (SNAP-GLP-1R) in MIN6B1 cells. The assay can be described thus: SNAP-GLP-1R partitioning into detergent-resistant (raft) membrane fractions. The class given is cell-based. Particulars: 2 min stimulation, versus vehicle.
For assay [7], the system named is SNAP-GIPR in HEK293 cells. Particulars: GIP 100 nM.
Text: These concentrations were selected because they provided optimum signal intensity at both measurement wavelengths. […] TR-FRET was sequentially measured after agonist addition.
The subject of assay [8] is SNAP-GIPR in CHO-K1 cells. Particulars: 100 nM GIP, 10 min.
In assay [9] the test system is SNAP-GLP-1R in HEK293 cells. The assay can be described thus: Surface SNAP-GLP-1R labeling by Lumi4-Tb. Particulars: MβCD treatment. In kind it is cell-based, human.
Assay [10] deals with SNAP-GIPR in INS-1 832/3 cells. The assay can be described thus: SNAP-GIPR internalization by confocal microscopy. Particulars: MβCD 10 mM 1 h; 100 nM GIP 1 h. In kind it is cell-based. On the procedure: For confocal microscopy, cells were labeled at 37 °C with 1 μM of the indicated SNAP-tag fluorescent probe (New England Biolabs) in full media, stimulated with agonists for the indicated times, fixed in 4% paraformaldehyde, mounted in Prolong Diamond antifade reagent with 4,6-diamidino-2-phenylindole (Life Technologies), imaged with a Zeiss LSM-780 inverted confocal laser-scanning microscope in a ×63/1.4 numerical aperture oil-immersion objective from the Facility for Imaging by Light Microscopy (FILM) at Imperial College London, and analyzed in Fiji. […] Images were acquired with an ORCA-Flash 4.0 camera (Hamamatsu) and Metamorph software (Molecular Devices), and colocalization was measured by Manders’ coefficient analyzed using Coloc 2 plugin in Fiji.

Assay [11] deals with SNAP-GLP-1R. The assay can be described thus: SNAP-GLP-1R internalization by confocal microscopy. In kind it is cell-based, human.
Assay [12] has as its system SNAP-GLP-1R in HEK293 cells. The assay can be described thus: NR12S TR-FRET (liquid-ordered localization). In kind it is cell-based, human. Particulars: for concentration response with MβCD (sheet S2H): agonist not named. A general note: Time-resolved FRET reads energy transfer from a long-lived donor to a nearby acceptor.
Assay [13] has as its target T1, endogenous GLP-1R in INS-1 832/3 cells (Rattus norvegicus, UniProt P32301).
T1 construct: endogenous in cells
T1 sequence (P32301 22-463): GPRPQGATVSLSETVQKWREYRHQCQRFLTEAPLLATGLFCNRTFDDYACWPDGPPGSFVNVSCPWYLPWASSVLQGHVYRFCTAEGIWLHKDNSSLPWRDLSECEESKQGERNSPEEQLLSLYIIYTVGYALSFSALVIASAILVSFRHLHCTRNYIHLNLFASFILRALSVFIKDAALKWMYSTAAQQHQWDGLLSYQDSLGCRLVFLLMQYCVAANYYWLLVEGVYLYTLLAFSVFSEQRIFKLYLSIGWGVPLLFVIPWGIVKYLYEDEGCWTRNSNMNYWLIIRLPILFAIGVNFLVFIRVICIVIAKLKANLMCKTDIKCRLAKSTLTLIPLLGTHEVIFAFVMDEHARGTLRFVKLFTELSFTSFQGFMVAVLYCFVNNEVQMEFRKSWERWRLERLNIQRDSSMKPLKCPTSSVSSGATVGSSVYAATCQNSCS
The assay can be described thus: HTRF cAMP, wt INS-1 832/3 cells. The class given is cell-based. The following applies: MβCD; wild-type INS-1 832/3 cells.
Experimental: Cells were treated in white microplates with agonist, with or without isobutylmethylxanthine (IBMX) as indicated to inhibit phosphodiesterases, for the indicated period of time before total cellular cAMP determination by HTRF (Cisbio cAMP Dynamic 2).

With `CC[S+]([O-])c1nc(-c2cccc(OCc3ccccc3)c2)cc(C(F)(F)F)n1` (centres unmarked) [BETP, 4-(3-benzyloxyphenyl)-2-ethylsulfinyl-6-(trifluoromethyl)pyrimidine], the “covalent binding site (in words)” value in the assay with GLP-1R [1] is “covalently bind two intracellular GLP-1R cysteine residues (347 and 438”. The “effect of BETP on internalization of C438A (in words)” value in assay [2] was “comparable to that of wild-type receptors”. In the assay with SNAP-GLP-1R [3] (CHO SNAP-GLP-1R cells, BETP 10 μM, 100 nM exendin-4 10 min), the “effect on exendin-4-induced palmitoylation (in words)” value was “significant reduction in exendin-4-induced palmitoylation”. In addition, in the assay with GLP-1R [4], the “potentiation of weak agonist GLP-1(9–36)NH2 (in words)” value is recorded as “markedly augment responses” and the “potentiation of weak agonist oxyntomodulin (in words)” value is “markedly augment responses”.
On to `CC(C)CCC[C@@H](C)[C@H]1CC[C@H]2[C@@H]3CC=C4C[C@@H](O)CC[C@]4(C)[C@H]3CC[C@]12C` [Chol], for which the cellular cholesterol came to 666.594 in assay [5] (CHO-K1, replicate 1); 793.376 in assay [5] (CHO-K1, replicate 2); 793.376 in assay [5] (CHO-K1, replicate 3); 549.236 in [5] (HEK293, replicate 1); 621.505 in assay [5] (HEK293, replicate 2); 643.5 in assay [5] (HEK293, replicate 3). For the same molecule, the cellular cholesterol in assay [5] (INS-1 832/3, replicate 1) came to 653.543; in assay [5] (INS-1 832/3, replicate 2), 706.063; in [5] (INS-1 832/3, replicate 3), 690.314; in assay [5] (MIN6B1, replicate 1), 989.644; in assay [5] (MIN6B1, replicate 2) it was 1174.28; in assay [5] (MIN6B1, replicate 3), 1186.59.
For the molecule `CCCCCCCCCCCCCCCC(=O)O` [palmitate], in the assay with SNAP-GLP-1R [3] (MIN6B1 SNAP-GLP-1R cells, excess palmitate (200 μM palmitate/BSA overnight)), the “GLP-1R palmitoylation (in words)” value is “greatly enhanced”.
Take “GLP-1(7–36)NH2: endogenous GLP-1R agonist (HAEGTFTSDVSSYLEGQAAKEFIAWLVKGR-NH2; UniProt P01275 98-127, looked up)”: in assay [6], the “SNAP-GLP-1R raft recruitment (in words)” value is “Increased enrichment of poly-glycosylated GLP-1Rs in membrane raft fractions”.
“glucose-dependent insulinotropic polypeptide [GIP]”: in [7], the “SNAP-GIPR clustering (in words)” value is on record as “no detectable increase upon GIP addition”. The “GIPR palmitoylation (in words)” value in assay [8] is on record as “not further increased by GIP stimulation”.
As to methyl-β-cyclodextrin [MβCD], in assay [9], the “effect on surface SNAP-GLP-1R expression (in words)” value is given as “did not alter receptor surface SNAP-GLP-1R expression”. Further, the “effect on GIPR endocytosis (in words)” value in assay [10] was “virtually abolished after MβCD treatment”. In addition, the “effect on BETP-induced internalization of exendin-phe1-stimulated SNAP-GLP-1R (in words)” value in the assay with SNAP-GLP-1R [11] (MIN6B1, MβCD 10 mM 1 h preincubation) is on record as “inhibited this process to the same extent as for exendin-4”. In the assay on SNAP-GLP-1R [11] (MβCD 10 mM 1 h, 100 nM exendin-4, 15 min, beta and nonbeta cells), the “effect on exendin-4-induced internalization (in words)” value is reported as “marked inhibition of exendin-4-induced SNAP-GLP-1R internalization”. The “effect on SNAP-GLP-1R endocytosis (in words)” value in the assay with SNAP-GLP-1R [11] (MβCD, wt and β-arrestin-less HEK293, 100 nM exendin-4, 15 min) is “substantially inhibited by MβCD irrespective of β-arrestin status”. The “effect on NR12S-linked TR-FRET (in words)” value in assay [12] (MβCD, S2H) was “effective in reducing both basal and exendin-4-induced NR12S-linked increases in TR-FRET”. In addition, the “concentration response with MβCD (sheet S2H)” value (shortened to “concentration response”) in assay [12] (log conc -6, replicate 1) amounted to 33.0955; in assay [12] (log conc -6, replicate 2) it was 36.4407; in assay [12] (log conc -6, replicate 3), 38.4994; in assay [12] (log conc -6.47712, replicate 1), 34.0966; in assay [12] (log conc -6.47712, replicate 2), 36.1901; in [12] (log conc -6.47712, replicate 3), 32.7645. In addition, the “concentration response” value in assay [12] (log conc -6.95424, replicate 2) worked out at 32.2917; in assay [12] (log conc -6.95424, replicate 3) it was 33.0671; in assay [12] (log conc -7.43136, replicate 1), 24.1893; in assay [12] (log conc -7.43136, replicate 2), 31.793; in [12] (log conc -7.90849, replicate 2), 35.2618; in assay [12] (log conc -7.90849, replicate 3), 26.4888. Further, the “concentration response” value is reported as 33.8275 in assay [12] (log conc -8.38561, replicate 3); 30.8645 in assay [12] (log conc -8.86273, replicate 1); 27.0998 in assay [12] (log conc -8.86273, replicate 2); 36.96 in [12] (log conc -8.86273, replicate 3); 23.1185 in assay [12] (log conc -10, replicate 1); 30.0361 in assay [12] (log conc -10, replicate 2). Also, in assay [12] (log conc -10, replicate 3), the “concentration response” value turned out to be 37.2206. Moreover, the “effect on cAMP production (in words)” value in assay [13] is given as “reduced by MβCD”. For the same molecule, the cellular cholesterol came out at 39.7439 in assay [5] (CHO-K1, replicate 1); 158.5 in assay [5] (CHO-K1, replicate 2); 99.7412 in assay [5] (CHO-K1, replicate 3); 170.419 in assay [5] (HEK293, replicate 1); 186.214 in assay [5] (HEK293, replicate 2); 179.148 in assay [5] (HEK293, replicate 3). The cellular cholesterol in assay [5] (INS-1 832/3, replicate 1) was found to be 159.866; in assay [5] (INS-1 832/3, replicate 2) it was 177.786; in assay [5] (INS-1 832/3, replicate 3) it was 167.411; in [5] (MIN6B1, replicate 1), 202.183; in assay [5] (MIN6B1, replicate 2), 224.442; in assay [5] (MIN6B1, replicate 3), 240.208.
